Experimental findings from US10941121B2 (AZIENDA OSPEDALIERA UNIVERSITARIA SENESE, priority 2015, dated 2021) are described below.

As a reminder, the CC50 is the concentration that lowers cell viability or growth by half. The term EC50 denotes the midpoint of the concentration-response curve.

Where two headings read alike, the source gives them in different places.

The nature of data set [1]: Cytotoxicity, MTT method in LUNET cells. The note with it: human; MMT method in LUNET cells; read-out: CC50 (μM) non-infected cells. The class given is cell-based. How it is done: Toxicity (CC50) was analysed in the Lunet/HuH7 cells by the addition of 10 μL of MTT (3-(4,5-dimethylthiazol-2-yl)-2,5-diphenyltetrazolium bromide) per well. After 4 h of incubation at 37° C. in a humidified atmosphere with 5% CO2, the amount of formazan produced was quantified spectrophotometrically at 550/620 nm (C. Pannecouque et al, Nature protocol 2008; 3 (3): 427-434). […] These assays were done in duplicate.

In data set [2] the target is T1, DDX3 Helicase (Homo sapiens, UniProt O00571). As to the kind of experiment: biochemical.
T1 sequence (O00571 whole entry): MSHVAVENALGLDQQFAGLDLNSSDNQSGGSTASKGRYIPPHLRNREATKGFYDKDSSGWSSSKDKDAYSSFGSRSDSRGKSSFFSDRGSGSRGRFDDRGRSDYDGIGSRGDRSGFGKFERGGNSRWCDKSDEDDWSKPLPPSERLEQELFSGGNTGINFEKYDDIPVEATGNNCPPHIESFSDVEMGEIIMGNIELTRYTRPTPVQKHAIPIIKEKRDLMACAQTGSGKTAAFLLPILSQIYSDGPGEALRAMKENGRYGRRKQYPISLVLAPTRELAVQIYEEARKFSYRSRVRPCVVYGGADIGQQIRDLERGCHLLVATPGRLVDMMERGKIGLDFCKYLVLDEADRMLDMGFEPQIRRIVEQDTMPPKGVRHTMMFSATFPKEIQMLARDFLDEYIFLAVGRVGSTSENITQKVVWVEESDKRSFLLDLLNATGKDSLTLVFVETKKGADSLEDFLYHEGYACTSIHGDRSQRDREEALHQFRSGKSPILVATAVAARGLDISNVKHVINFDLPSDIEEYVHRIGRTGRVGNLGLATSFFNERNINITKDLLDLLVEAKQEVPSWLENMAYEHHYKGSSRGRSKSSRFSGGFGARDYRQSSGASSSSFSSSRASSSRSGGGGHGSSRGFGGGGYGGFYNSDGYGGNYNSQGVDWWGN
Data set [3] has as its system Hepatitis C Virus (HCV) replicon system. The data set is described as follows: HCV replicon system, luciferase method in LucUbiNeo-ET cells. The following applies: for EC50: Hepatitis C virus, 48 h, read-out: EC50 (μM) HCV replicon system. For orientation: Replicon systems follow genome replication, usually without infectious particles.
Data set [4] has as its target T1, DDX3 Helicase. The following applies: for IC50: read-out: ID50 (μM) against DDX3 Helicase, n.a. = compound not active.
A further data set is described as follows: Water Solubility Assay. It is filed as physicochemical. The following applies: thermodynamic from solid. As for the experimental part: Water Solubility Assay. Each solid compound (1 mg) was added to 1 mL of water. The samples were shaked in a shaker bath at room temperature for 24-36 h. The suspensions were filtered through a 0.45 μm nylon filter (Acrodisc), and the solubilized compound determined by LC-MS-MS assay. For each compound the determination was performed in triplicate.
For the quantification was used an LC-MS system consisted of a Varian apparatus (Varian Inc) including a vacuum solvent degassing unit, two pumps (212-LC), a Triple Quadrupole MSD (Mod. 320-LC) mass spectrometer with ES interface and Varian MS Workstation System Control Vers. 6.9 software. […] The flow rate was 0.2 mL min^−1 and injection volume was 5 μL. The instrument operated in positive mode and parameters were: detector 1850 V, drying gas pressure 25.0 psi, desolvation temperature 300.0° C., nebulizing gas 40.0 psi, needle 5000 V and shield 600 V. Nitrogen was used as nebulizer gas and drying gas. Collision induced dissociation was performed using Argon as the collision gas at a pressure of 1.8 mTorr in the collision cell.

The nature of data set [5]: Parallel Artificial Membrane Permeability Assay (PAMPA). The class given is in vitro ADME. The following applies: for Papp at 5 h, 0.5 mM: PAMPA, phosphatidylcholine in dodecane, pH 7.4, 5 h, room temperature, read-out: PAMPA Papp *10^−6 (cm/s) GI; for PAMPA membrane retention (RM %): value in brackets in the PAMPA cell. As for the experimental part: Parallel Artificial Membrane Permeability Assay (PAMPA). Donor solution (0.5 mM) was prepared by diluting 1 mM dimethylsulfoxide (DMSO) compound stock solution using phosphate buffer (pH 7.4, 0.025 M). Filters were coated with 5 μL of a 1% (w/v) dodecane solution of phosphatidylcholine prepared from CHCl3 solution 10% w/v, for intestinal permeability. Donor solution (150 μL) was added to each well of the filter plate. To each well of the acceptor plate were added […] (50% DMSO in phosphate buffer). All compounds were tested in three different plates on different days. The sandwich was incubated for 5 h at room temperature under gentle shaking. After the incubation time, the plates were separated, and samples were taken from both receiver and donor sides and analyzed using LC with UV detection at 280 nm.
LC analysis were performed with a Varian Prostar HPLC system (Varian Analytical Instruments, USA) equipped with a binary pump with a manual injection valve and model Prostar 325 UV-VIS Detector.
Permeability (Papp) for PAMPA was calculated according to the following equation, obtained from Wohnsland and Faller and Sugano et al. equation with some modification in order to obtain permeability values in cm s^−1,
where VA is the volume in the acceptor well, VD is the volume in the donor well (cm^3), A is the “effective area” of the membrane (cm^2), t is the incubation time (s) and r the ratio between drug concentration in the acceptor and equilibrium concentration of the drug in the total volume (VD+VA). Drug concentration is estimated by using the peak area integration.
Membrane retentions (%) were calculated according to the following equation: […]
where r is the ratio between drug concentration in the acceptor and equilibrium concentration, D, A, and Eq represented drug concentration in the donor, acceptor and equilibrium solution, respectively.
For orientation: The PAMPA barrier holds no transporters, so it reflects passive diffusion.

Where [6] appears, read: experimental aqueous solubility, read-out: LogS (converted).
The mark [7] stands for this setting: room temperature, 24-36 h, read-out: Aq. Solub.

Turning to `Cc1ccccc1NC(=O)Nc1ccc(-n2cc(C(C)(C)C)nn2)cc1` [Compound 8b, 1-(4-(4-tert-butyl-1H-1,2,3-triazol-1-yl)phenyl)-3-o-tolylurea], in data set [1], the CC50 turned out to be 100 µM. The compound also returned an IC50 against DDX3 Helicase [2] of 3.36 µM. Moreover, the EC50 in data set [3] was determined as 5.73 µM.

On to `Cc1ccccc1NC(=O)Nc1ccc(-n2cc(CN(C)Cc3ccccc3)nn2)cc1` [Compound 8c, 1-(4-(4-methanamine,N-[(phenyl)methyl]-N-methyl-1H-1,2,3-triazol-1yl)phenyl)-3-o-tolylurea], for which, at DDX3 Helicase [2], the IC50 was found to be 22.8 µM.

Take `Cc1cn(-c2ccc(NC(=O)Nc3ccccc3C)cc2)nn1` [Compound 8f, 1-(4-(4-methyl-1H-1,2,3-triazol-1-yl)phenyl)-3-o-tolylurea]: in data set [1], the 50% cytotoxic concentration (CC50) was 36 µM. The EC50 in data set [3] is greater than 36 µM.

Regarding `CCc1cn(-c2ccc(NC(=O)Nc3ccccc3C)cc2)nn1` [Compound 8g, 1-(4-(4-ethyl-1H-1,2,3-triazol-1-yl)phenyl)-3-o-tolylurea], the CC50 in data set [1] was 295 µM. This compound also yielded an IC50 against DDX3 Helicase [2] of 0.98 µM. The EC50 in data set [3] came out at 36 µM.

For the compound `CCCCc1cn(-c2ccc(NC(=O)Nc3cnccc3C)cc2)nn1` [Compound 15a, 1-(4-(4-butyl-1H-1,2,3-triazol-1-yl)phenyl)-3-(4-methylpyridin-3-yl)urea], the IC50 against DDX3 Helicase [2] was found to be 1.47 µM.

As to `Cc1ccncc1NC(=O)Nc1ccc(-n2cc(CCC(C)C)nn2)cc1` [Compound 15b, 1-(4-(4-isopentyl-1H-1,2,3-triazol-1-yl)phenyl)-3-(4-methylpyridin-3-yl)urea], the CC50 in data set [1] worked out at 180 µM. This compound also came in with an IC50 against DDX3 Helicase [2] of 2 µM. In addition, the 50% effective concentration (EC50) in data set [3] came out at 3.65 µM.

For `Cc1ccccc1NC(=O)Nc1ccc(-n2cc(C(F)(F)C(F)(F)C(F)(F)C(F)(F)F)nn2)cc1` [Compound 20c], in data set [1], the 50% cytotoxic concentration (CC50) was greater than 125 µM. The concentration for a half-maximal effect (EC50) in data set [3] was greater than 125 µM. For the same compound, on DDX3 Helicase [4], the IC50 was 6 µM.

As to `COCCc1cn(-c2ccc(NC(=O)Nc3ccccc3C)cc2)nn1` [Compound 20f, 1-(4-(4-(2-methoxyethyl)-1H-1,2,3-triazol-1-yl)phenyl)-3-o-tolylurea], the CC50 in data set [1] amounted to 44.4 µM. In data set [3], the EC50 turned out to be 28.8 µM. Also, the IC50 at DDX3 Helicase [4] was 1 µM. Besides, the solubility in “Water Solubility Assay” (setting [6]) is 50.1 µM; in “Water Solubility Assay” (setting [7]), 26.3 µg/mL. In addition, the Papp at 5 h, 0.5 mM in data set [5] was determined as 0.69 ×10⁻⁶ cm/s. Besides, the “PAMPA membrane retention (RM %)” value in data set [5] was determined as 7.4%.

As for `Cc1c(Cl)cccc1NC(=O)Nc1ccc(-n2cc(CCC(C)C)nn2)cc1` [Compound 21b, 1-(3-chloro-2-methylphenyl)-3-(4-(4-isopentyl-1H-1,2,3-triazol-1-yl)phenyl)urea], the CC50 in data set [1] is 42.1 µM. Further, in data set [3], the EC50 came out at 6.11 µM. Moreover, the solubility in the data set “Water Solubility Assay” (setting [6]) is less than 0.00251 µM. In addition, in “Water Solubility Assay” (setting [7]), the solubility is less than 0.001 µg/mL. In data set [5], the Papp at 5 h, 0.5 mM was 2.51 ×10⁻⁶ cm/s and the “PAMPA membrane retention (RM %)” value was determined as 59.1%.

For `Cc1ccccc1NC(=O)Nc1ccc(-n2cc(CO)nn2)cc1` [Compound 35a, 1-(4-(4-(hydroxymethyl)-1H-1,2,3-triazol-1-yl)phenyl)-3-o-tolylurea], the IC50 against DDX3 Helicase [2] was determined as 17.5 µM.

As for `Cc1ccccc1NC(=O)Nc1ccc(-n2cc(CCO)nn2)cc1` [Compound 35b, 1-(4-(4-(hydroxyethyl)-1H-1,2,3-triazol-1-yl)phenyl)-3-o-tolylurea], the CC50 in data set [1] was greater than 370 µM. In addition, on DDX3 Helicase [2], the IC50 is 20 µM. Besides, the concentration giving a half-maximal response (EC50) in data set [3] was found to be 28.9 µM.

Turning to `Cc1ccccc1NC(=O)Nc1ccc(-n2cc(CN3CCOCC3)nn2)cc1` [Compound 35e, 1-(4-(4-(morpholinomethyl)-1H-1,2,3-triazol-1-yl)phenyl)-3-o-tolylurea], in data set [1], the 50% cytotoxic concentration (CC50) was greater than 125 µM. Also, in data set [3], the EC50 was greater than 125 µM.

As to `Cc1ccccc1NC(=O)Nc1ccc(-n2cc(CCN3CCOCC3)nn2)cc1` [Compound 35f, 1-(4-(4-(morpholinoethyl)-1H-1,2,3-triazol-1-yl)phenyl)-3-o-tolylurea], in data set [1], the cytotoxic concentration (CC50) is greater than 125 µM. Further, the EC50 in data set [3] was greater than 125 µM.

For the compound `Cc1ccccc1NC(=O)Nc1ccc(-n2cc(CCCN(C)C)nn2)cc1` [Compound 35i, 1-(4-(4-(dimethylaminopropyl)-1H-1,2,3-triazol-1-yl)phenyl)-3-o-tolylurea], the IC50 on DDX3 Helicase [4] amounted to 2.9 µM.

`Cc1ccccc1NC(=O)Nc1ccc(-n2cc(CCOC(=O)CC(C)C)nn2)cc1` [Compound 37, 2-(1-(4-(3-(o-tolyl)ureido)phenyl)-1H-1,2,3-triazol-4-yl)ethyl 3-methylbutanoate]: in data set [1], the half-maximal cytotoxic concentration (CC50) turned out to be 180 µM. The EC50 in data set [3] amounted to 11.7 µM. Besides, the IC50 on DDX3 Helicase [4] turned out to be 1.3 µM.

As for `CC(C)CC(=O)OCCc1cn(-c2ccc(NC(=O)Nc3ccccc3C(F)(F)F)cc2)nn1` [Compound 38, 2-(1-(4-(3-(2-(trifluoromethyl)phenyl)ureido)phenyl)-1H-1,2,3-triazol-4-yl)ethyl 3-methylbutanoate], the 50% cytotoxic concentration (CC50) in data set [1] came out at 23.2 µM. In addition, the EC50 in data set [3] was determined as 0.5 µM. Besides, the IC50 on DDX3 Helicase [4] was determined as 0.4 µM.

In the case of `O=C(Nc1ccc(-n2cc(CCOC(=O)/C=C/c3ccc4c(c3)OCO4)nn2)cc1)Nc1ccccc1C(F)(F)F` [Compound 39, 2-(1-(4-(3-(2-(trifluoromethyl)phenyl)ureido)phenyl)-1H-1,2,3-triazol-4-yl)ethyl 3-(benzo[d][1,3]dioxol-5-yl)acrylate], the CC50 in data set [1] is 28.6 µM. Further, the EC50 in data set [3] stood at 4.3 µM. Further, the IC50 at DDX3 Helicase [4] was determined as 5.1 µM.

Compound `CCCC(C)C(F)c1cn(-c2ccc(NC(=O)Nc3ccccc3C(F)(F)F)cc2)nn1` (centres unmarked) [Compound 42c, 1-(4-(4-(1-fluoro-2-methylpentyl)-1H-1,2,3-triazol-1-yl)phenyl)-3-(2-(trifluoromethyl)phenyl) urea] displayed an IC50 on DDX3 Helicase [2] of 0.3 µM.

For the compound `CCOCn1nnc(-c2ccc(NC(=O)Nc3ccccc3C)cc2)n1` [Compound 50, 1-(4-(2-(ethoxymethyl)-2H-tetrazol-5-yl)phenyl)-3-(o-tolyl)urea], in data set [1], the CC50 is 245 µM. This compound returned an IC50 against DDX3 Helicase [2] of 14 µM. Further, the EC50 in data set [3] is 22.8 µM.

With `CCCCn1nnc(-c2ccc(NC(=O)Nc3cnccc3C)cc2)n1` [Compound 52, 1-(4-(2-butyl-2H-tetrazol-5-yl)phenyl)-3-(4-methylpyridin-3-yl)urea], the IC50 against DDX3 Helicase [2] was found to be 2.49 µM.

Take `CC(C)CCc1cn(-c2ccc(NC(=O)Nc3ccccc3F)cc2)nn1` [Compound 55a, 1-(2-fluorophenyl)-3-(4-(4-isopentyl-1H-1,2,3-triazol-1-yl)phenyl)urea]: the 50% cytotoxic concentration (CC50) in data set [1] is greater than 340 µM. Besides, in data set [3], the “activity against HCV, in words” value is “best activity” and the concentration giving a half-maximal response (EC50) is 0.4 µM. The “DDX3 helicase activity compared with EI01D” value on DDX3 Helicase [4] (in words) is listed as “approximately ten-fold more active”. The IC50 at DDX3 Helicase [4] came to 0.12 µM.

As to `Cc1nc(Cl)c2ccccc2c1NC(=O)Nc1ccc(-n2cc(CCC(C)C)nn2)cc1` [Compound 55g, 1-(1-chloro-3-methylisoquinolin-4-yl)-3-(4-(4-isopentyl-1H-1,2,3-triazol-1-yl)phenyl)urea], the CC50 in data set [1] was greater than 278 µM. The compound also displayed an IC50 against DDX3 Helicase [2] of 10 µM. In data set [3], the EC50 is 12.4 µM.

In the case of `CCCCc1cn(-c2cccc(S(=O)(=O)Nc3ccc(OC)cc3)c2)nn1` [Compound 64b, 3-(4-butyl-1H-1,2,3-triazol-1-yl)-N-(4-methoxyphenyl)benzenesulfonamide], on DDX3 Helicase [2], the IC50 is 52.2 µM.

Turning to `CCCCc1cn(-c2ccc(S(=O)(=O)Nc3ccccc3O)cc2)nn1` [Compound 65a, 4-(4-butyl-1H-1,2,3-triazol-1-yl)-N-(2-hydroxyphenyl)benzenesulfonamide], the IC50 at DDX3 Helicase [2] stood at 15.5 µM.
